Data: patent US10548313B2, “Acetyl-CoA carboxylase modulators” (Monsanto Technology LLC, priority 2013, dated 2020)
“And” between values parts separate entries of the source, which are not always exact repeats. Equal entries are not always repeated. Where two headings read alike, the source gives them in different places.

How the values were obtained:
Diplodia maydis = test: Fungal growth inhibition assay, Diplodia maydis; format: cell-based; conditions: 48 hours, read-out: D. maydis % growth inhibition at 48 hours
Method: (§1) Spores were isolated from previously sub-cultured plates of Botrytis cinerea, Phytophthora capsici, Fusarium moniliforme, Fusarium viguliforme, Collectotrichum graminicola, and Diplodia maydis. All spores were filtered and collected in a sterile glass bowl to isolate the spores from the mycelia. The isolation and sub-culture plate condition for each pathogen is described below.
Spore isolation for D. maydis: A 3-4 week old PDA (pre-mix) plate was removed from 26° C. incubator with a light/dark 12 hour cycle and the mycelia were treated with 6-7 ml of sterile distilled water, scraped into a sterile petri dish, and smashed to open the pycnidia. The spores were then collected in a sterile filter bowl containing a fluted piece of filter paper and poured into a conical tube.
(§2) After spore isolation, pathogen spores were counted on a hemocytometer to calculate the spores/ml. In 17% V8 liquid media containing 3 g/L CaCO3, isolated spores were diluted to individual concentrations based on the growth curves at 48 hours of each pathogen. The spore concentrations for each pathogen were as follows: B. cinerea—10,000 sp/ml; P. capsici—300 sp/ml; F. monliforme—500 sp/ml; F. virguliforme—500 sp/ml; C. graminicola—3,000 sp/ml; and D. maydis—3,000 sp/ml.
(§3) Chemistry stocks were dissolved in DMSO at 2.5 mg/ml. Chemistry was diluted in a 96-well stock plate in five-fold dilutions to obtain a final concentration of 50, 10, and 2 ppm in vitro. The final concentration of the positive control after the five-fold dilutions was as follows: soraphen—0.5, 0.1, and 0.02 ppm. Negative controls on each plate included 2% DMSO, water containing spores and media, and a blank for background subtraction.
(§4) In a 96-well plate the spore solution, chemistries, and controls were combined to make the final solution concentrations mentioned above. Upon addition of the chemistry, an OD600 reading was done to assess chemical precipitation. The 96-well plates were incubated in plastic tubs containing wet paper towels under the following conditions, 25° C. in the dark for P. capsici and B. cinerea or 26° C. with light/dark cycle for C. graminicola, D. maydis, F. virguliforme, F. monliforme. Plate readings were repeated at 24 and 48 hrs. Visual ratings were performed at 24 and 48 hrs to check for precipitation and confirm efficacy. Visual and OD600 ratings of the chemistry at 48 hours were compared to the 2% DMSO control to determine the percent of pathogen growth inhibition.

[1] = tested on: Collectotrichum graminicola; test: Fungal growth inhibition assay, Collectotrichum graminicola; format: cell-based; conditions: Colletotrichum graminicola, 48 hours, read-out: C. graminicola % growth inhibition at 48 hours
Method: as §1
Spore isolation for C. graminicola: A 1-2 week old oatmeal agar (pre-mix) plate was removed from 26° C. incubator with a light/dark 12 hour cycle and the mycelia were treated with 10-15 ml of filter sterilized distilled water. The mycelia were scraped to re-suspend the spores. The spores were then collected in a sterile filter bowl containing a piece of sterile cheesecloth and poured into a conical tube.
as §2, §3, §4

Fusarium virguliforme = test: Fungal growth inhibition assay, Fusarium virguliforme; format: cell-based; conditions: 48 hours, read-out: F. virguliforme % growth inhibition at 48 hours
Method: as §1
Spore isolation for F. virguliforme: A 2-3 week old PDA (pre-mix) plate containing cefotaxime (100 mg/L) and kanamycin (50 mg/L) was removed from 26° C. incubator with a light/dark 12 hour cycle and the mycelia were treated with 5-10 ml of filter sterilized distilled water. The mycelia were scraped to re-suspend the spores. The spores were then collected in a sterile filter bowl containing a fluted piece of filter paper and poured into a conical tube.
as §2, §3, §4

[2] = molecular target: Ustilago maydis acetyl CoA carboxylase (ACCase) (Mycosarcoma maydis (Ustilago maydis), UniProt A0A0D1DYD5); test: ACCase enzymatic assay (coupled PK/LDH, NADH OD340); format: biochemical
Method: Ustilago maydis acetyl CoA carboxylase (ACCase) was cloned, expressed, and purified as described (Weatherly et al, Biochem. J., 2004) and the test compounds were tested in a 96-well plate format. Primary in vitro screening consisted of obtaining dose response data at 100, 33, 10, and 1 μM inhibitor. Actives in the primary screen were re-tested to establish IC50 values.
Direct detection of the conversion of acetyl CoA to malonyl CoA by ACCase was not feasible, but during this process ATP is converted to ADP which allowed for detection through a standard reaction coupling with ADP recycling to the oxidation of NADH. Thus, ACCase activity was measured via kinetic OD340 measurements of the conversion of NADH to NAD in a coupled reaction involving the conversion of phosphoenolpyruvate (PEP) to lactate.
The complete 200 ul reaction mixture contained 52.5 mM HEPES (pH8), 2.625 mM MgCl2, 1 mM ATP, 0.525 mM DTT, 11 mM NaHCO3, 1% DMSO with or without inhibitor, 1× pyruvate kinase/lactate dehydrogenase (PK/LDH), 0.3 mM NADH, 0.5 mM PEP, and 5 μg ACCase. The reactions were incubated at 30° C. for 10 minutes and then initiated by the addition of 0.33 mM acetyl CoA. The initiated reactions were read immediately via plate reader at OD340 and kinetic readings were acquired every 20 s for 15 minutes while keeping the temperature at 30° C.
A slope of the kinetic curve was determined by using the 2 to 7 minute data which was then calculated as percent inhibition relative to the no inhibitor control.
The primary screens were conducted in duplicate and the IC50's conducted in triplicate. Averages were reported along with standard deviation calculation to generate error bars.
Each plate contained its own controls and consisted of a DMSO only control, 5-fold titration series of soraphen from 2 μM to 3.2 nM, and an ADP coupled reaction control.

Botrytis cinerea = test: Fungal growth inhibition assay, Botrytis cinerea; format: cell-based; conditions: 48 hours, read-out: B. cinerea % growth inhibition at 48 hours
From the text: as §1
Spore isolation for B. cinerea: A 2-3 week old V8 (17%)+CaCO3 (3 g/L)+20 g agar plate was removed from room temperature and the mycelia were treated with 5-10 ml of filter sterilized Triton X 100 (.05%). The mycelia were scraped to re-suspend the spores. The spores were then collected in a sterile filter bowl containing a fluted piece of filter paper and poured into a conical tube.
as §2, §3, §4

Saccharomyces cerevisiae = test: Yeast growth inhibition assay; format: cell-based
Method: Yeast cells (Ade2 strain) were grown in liquid YPD (1% yeast extract, 2% peptone, 2% dextrose) for 16 hours at 30° C. from previously sub-cultured plates of Saccharomyces cerevisiae. The OD600 of the overnight culture was checked via spectrophotometer and diluted to a concentration of 2×10^4 cells/ml.
Chemistry stocks were dissolved in DMSO to a concentration of 10 mM. Chemistry stocks were further diluted in a 96-well stock plate to obtain final concentrations of 100, 33, 10 and 1 μM in 1% DMSO. The final concentrations of the soraphen positive controls were 400, 40, and 3.2 nM. The negative controls on each plate included a background subtraction control containing yeast and 1% DMSO (without chemistry) and a second contamination control containing YPD (with no yeast) and 1% DMSO (without chemistry).
98 μl liquid YPD was added to 2 μl diluted stock of DMSO per well and mixed thoroughly. After mixing, 100 μl of the diluted yeast solution was added to bring the final yeast concentration to 1×10^4 cells/ml or 2000 cells per well. An initial spectrophotometric reading at OD600 was conducted on the entire plate and served as the 0 hour time point used to subtract any background. […] […] […] All experiments were conducted in triplicate. Averages were reported along with standard deviation calculation to generate error bars. Each plate contained its own controls and consisted of inoculated+DMSO, non-inoculated+DMSO, and a titration series of soraphen at 400, 40, and 3.2 nM.

Phytophthora capsici = test: Fungal growth inhibition assay, Phytophthora capsici; format: cell-based; conditions: 48 hours, read-out: P. capsici % growth inhibition at 48 hours
From the text: as §1
Spore isolation for P. capsici: Three to five days prior to the assay a 2-3 week old V8 (17%)+CaCO3 (3 g/L)+20 g agar plate was removed from a dark 25° C. incubator and cut up into small chunks. One plate was separated into two deep well plates and rinsed with sterile distilled water three times. The cut up pieces were incubated under light in a sterile filter hood with 25 ml of sterile distilled water. On the day of the assay the water was removed and 5-7 ml of fresh sterile distilled water was added. One plate was incubated at 4° C. for 45-60 minutes and then placed at room temperature for about 45-60 minutes. The spores were collected in a sterile filter bowl containing a fluted piece of filter paper. The spores were vortexed in a conical tube for 30-60 seconds to remove the flagella of the zoospores after isolation.
as §2, §3, §4

[3] = Table 1A, values marked a are a result of two or more experiments, read-out: ACCase Inhibitory Activity IC50

Chain of Ustilago maydis acetyl CoA carboxylase (ACCase) (A0A0D1DYD5 1-2185): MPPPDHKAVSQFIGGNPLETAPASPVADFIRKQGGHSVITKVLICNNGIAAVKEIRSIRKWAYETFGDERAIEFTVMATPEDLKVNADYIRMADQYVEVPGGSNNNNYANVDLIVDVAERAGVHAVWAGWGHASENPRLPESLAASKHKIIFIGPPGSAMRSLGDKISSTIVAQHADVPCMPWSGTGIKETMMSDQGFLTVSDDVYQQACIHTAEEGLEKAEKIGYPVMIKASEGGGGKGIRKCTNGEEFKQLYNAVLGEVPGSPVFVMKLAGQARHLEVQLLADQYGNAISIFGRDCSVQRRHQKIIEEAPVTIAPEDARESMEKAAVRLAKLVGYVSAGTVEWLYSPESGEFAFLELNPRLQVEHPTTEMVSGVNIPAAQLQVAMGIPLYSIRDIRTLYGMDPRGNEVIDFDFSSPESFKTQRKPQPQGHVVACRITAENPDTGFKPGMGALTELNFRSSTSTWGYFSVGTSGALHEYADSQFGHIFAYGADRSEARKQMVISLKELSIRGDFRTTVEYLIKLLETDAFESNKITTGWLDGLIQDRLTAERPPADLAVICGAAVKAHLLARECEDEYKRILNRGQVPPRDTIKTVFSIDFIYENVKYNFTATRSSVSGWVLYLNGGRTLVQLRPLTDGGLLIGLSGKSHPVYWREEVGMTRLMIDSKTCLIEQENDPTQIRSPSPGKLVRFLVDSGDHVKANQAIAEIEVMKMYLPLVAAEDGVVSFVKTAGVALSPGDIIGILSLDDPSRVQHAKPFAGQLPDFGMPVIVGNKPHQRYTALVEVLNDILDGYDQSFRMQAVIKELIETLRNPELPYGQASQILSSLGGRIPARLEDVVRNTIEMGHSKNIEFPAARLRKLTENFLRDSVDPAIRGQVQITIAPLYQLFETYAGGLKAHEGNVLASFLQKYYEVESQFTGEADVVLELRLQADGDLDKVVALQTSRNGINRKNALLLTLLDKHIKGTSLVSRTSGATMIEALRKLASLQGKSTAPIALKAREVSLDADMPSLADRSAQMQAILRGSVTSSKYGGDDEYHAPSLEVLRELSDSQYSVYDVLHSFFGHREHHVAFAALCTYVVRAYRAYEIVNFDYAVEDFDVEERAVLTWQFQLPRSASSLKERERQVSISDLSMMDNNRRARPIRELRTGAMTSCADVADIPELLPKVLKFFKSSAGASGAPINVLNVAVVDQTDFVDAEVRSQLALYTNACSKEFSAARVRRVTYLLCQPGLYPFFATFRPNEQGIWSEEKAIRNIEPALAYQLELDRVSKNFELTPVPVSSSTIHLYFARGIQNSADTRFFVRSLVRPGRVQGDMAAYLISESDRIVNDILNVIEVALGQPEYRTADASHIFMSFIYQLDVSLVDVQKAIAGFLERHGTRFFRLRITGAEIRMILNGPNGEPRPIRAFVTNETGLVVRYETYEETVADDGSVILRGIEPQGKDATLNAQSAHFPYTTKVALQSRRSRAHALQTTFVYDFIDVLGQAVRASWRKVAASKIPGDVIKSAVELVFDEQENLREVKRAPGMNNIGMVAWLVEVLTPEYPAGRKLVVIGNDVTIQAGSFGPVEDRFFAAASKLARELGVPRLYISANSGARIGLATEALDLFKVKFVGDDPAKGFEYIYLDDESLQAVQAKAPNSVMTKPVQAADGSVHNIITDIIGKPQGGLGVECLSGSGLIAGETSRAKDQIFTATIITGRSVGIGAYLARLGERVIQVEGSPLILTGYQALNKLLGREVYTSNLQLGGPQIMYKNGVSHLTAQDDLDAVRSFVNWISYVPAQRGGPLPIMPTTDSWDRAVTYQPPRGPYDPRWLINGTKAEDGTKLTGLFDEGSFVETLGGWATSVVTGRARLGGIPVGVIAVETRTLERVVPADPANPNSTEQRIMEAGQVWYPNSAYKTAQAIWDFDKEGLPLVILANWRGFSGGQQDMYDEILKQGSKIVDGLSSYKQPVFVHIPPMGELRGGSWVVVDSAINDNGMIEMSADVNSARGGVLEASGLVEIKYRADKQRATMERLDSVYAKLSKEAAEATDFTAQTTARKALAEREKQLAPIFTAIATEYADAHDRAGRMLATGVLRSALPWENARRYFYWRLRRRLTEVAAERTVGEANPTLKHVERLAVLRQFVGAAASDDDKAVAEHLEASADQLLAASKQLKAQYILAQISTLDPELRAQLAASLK

Row | Structure (SMILES) | inhibition at 2 ppm (Diplodia maydis) [%] | inhibition at 10 ppm (Diplodia maydis) [%] | inhibition at 50 ppm (Diplodia maydis) [%] | inhibition at 2 ppm [1] [%] | inhibition at 10 ppm [1] [%] | inhibition at 50 ppm [1] [%] | inhibition at 2 ppm (Fusarium virguliforme) [%] | inhibition at 10 ppm (Fusarium virguliforme) [%] | inhibition at 2 ppm (Botrytis cinerea) [%] | inhibition at 10 ppm (Botrytis cinerea) [%] | IC50 [2, 3] [nM] | inhibition at 50 ppm (Botrytis cinerea) [%] | also measured
1 | N#Cc1c(-c2cccs2)cc(-c2cccs2)nc1SC(C(=O)O)c1ccccc1 (racemic) [Formula Ia-iii, 2-((3-cyano-4,6-di(thiophen-2-yl)pyridin-2-yl)thio)-2-phenylacetic acid] | 0 | 87 | 82 | 27 | 98 | 91 | 2 | 84 |  |  |  |  | inhibition at 50 ppm (Fusarium virguliforme; 50 ppm): 90%
2 | COc1ccc(-c2cc(-c3cccs3)nc(SC(C(=O)O)c3ccccc3)c2C#N)cc1 (racemic) [Formula Ia-xiv, 2-((3-cyano-4-(4-methoxyphenyl)-6-(thiophen-2-yl)pyridin-2-yl)thio)-2-phenylacetic acid] |  |  |  | 6 | 32 | 79 |  |  | 14 | 8 |  |  | IC50 ([2]; Table 1B, racemate vs single enantiomers, read-out: ACCase Inhibitory Activity of Racemic Mixtures and Single Enantiomers IC50): 92 nM and 140 nM
3 | N#Cc1c(C(F)(F)F)cc(-c2ccc(Br)cc2)nc1SC(C(=O)O)c1ccccc1 (stereo not drawn) [Formula Ia-x, 2-((6-(4-bromophenyl)-3-cyano-4-(trifluoromethyl)pyridin-2-yl)thio)-2-phenylacetic acid] |  |  |  |  |  |  |  |  | 0 | 12 | 1950 | 25 | inhibition at 3.7 µM (Saccharomyces cerevisiae; read-out: S. cerevisiae % growth inhibition at 48 hours, 3.7 μM): 12%; inhibition at 11.1 µM (Saccharomyces cerevisiae; read-out: S. cerevisiae % growth inhibition at 48 hours, 11.1 μM): 13%; inhibition at 33.3 µM (Saccharomyces cerevisiae; read-out: S. cerevisiae % growth inhibition at 48 hours, 33.3 μM): 46%; inhibition at 100 µM (Saccharomyces cerevisiae; read-out: S. cerevisiae % growth inhibition at 48 hours, 100 μM): 99%
4 | N#Cc1c(-c2ccccc2)cc(-c2ccccc2)nc1SC(C(=O)O)c1ccccc1 (stereo not drawn) [Formula Ia-xii, 2-((3-cyano-4,6-diphenylpyridin-2-yl)thio)-2-phenylacetic acid] | 42 | 59 | 86 | 6 | 35 | 80 |  |  | 0 | 6 | 266 | 19 | inhibition at 2 ppm (Phytophthora capsici; 2 ppm): 16%; inhibition at 10 ppm (Phytophthora capsici; 10 ppm): 36%; inhibition at 50 ppm (Phytophthora capsici; 50 ppm): 22%
5 | CCc1nc(SC(C(=O)O)c2ccccc2)c(C#N)c2c1CCCC2 (stereo not drawn) [Formula Ia-xv, 2-((4-cyano-1-ethyl-5,6,7,8-tetrahydroisoquinolin-3-yl)thio)-2-phenylacetic acid] |  |  |  |  |  |  | 10 | 48 |  |  | 10200 |  | 
